The values below come from patent US7387798B2, “Method and composition for resuscitation” (priority 2004, dated 2008).

“Also recorded” adds a separate entry of the source.

Tested on in the first experiment: not listed separately
The experiment is described as follows: Neural protective effect of colloid osmotic agents and Polypeptides (stated, no method given). Conditions: general statement, no experiment described.
For Hetastarch, the “protecting the CNS tissue (neural protective effect)” value (“protecting the CNS tissue” below) is “ineffective”.

Take Dextran: the “protecting the CNS tissue” value was “ineffective; also recorded: do not confer neuroprotective effect”.

Consider albumin, for which the “protecting the CNS tissue” value was “effective”.

Take Collagen: the “protecting the CNS tissue” value is recorded as “effective”.

The subject of a further experiment is cultured neurons.
Test: not given
As to conditions: continuous application, 100 μM; cited from earlier work.
Turning to `O=c1ccn([C@@H]2O[C@H](COP(=O)(O)OP(=O)(O)OP(=O)(O)O)[C@@H](O)[C@H]2O)c(=O)[nH]1` [Uridine 5′-triphosphate], the “axonal transport of membrane-bound organelles in anterograde and retrograde directions” value is “effect similar to ATP”.

`Nc1ncnc2c1ncn2[C@@H]1O[C@H](COP(=O)(O)OP(=O)(O)OP(=O)(O)O)[C@@H](O)[C@H]1O` [ATP, Adenosine 5′-triphosphate]: the “axonal transport of membrane-bound organelles in anterograde and retrograde directions” value is “significantly increased”.
